# Test system: vesicular stomatitis virus particles (VSV) pseudotyped with EboV Zaire GP
# Experiment: microbe, parasite or virus in culture
# Format: cell-based
# Conditions: Vesicular stomatitis virus
row,Structure (SMILES),IC50
1,"[2H]C([2H])(c1cc(Cl)ccc1NCc1ccc(C(=O)OC)cn1)N1CCN(C(=O)CNC(=O)C2CC23CCC(F)(F)CC3)CC1 (centres unmarked) [Compound 1548, 6-{[4-Chloro-2-(4-{2-[(6,6-difluoro-spiro[2.5]octane-1-carbonyl)-amino]-acetyl}-piperazin-1-yl-di-deutero-methyl)-phenylamino]-methyl}-nicotinic acid methyl ester]",7 nM
2,"O=C(CC12CC3CC(CC(C3)C1)C2)NCC(=O)N1CCN(Cc2cc(Cl)cc(Br)c2)CC1 [Compound 1332, 2-((1R,3R,5S)-Adamantan-1-yl)-N-(2-(4-(3-bromo-5-chlorobenzyl)piperazin-1-yl)-2-oxoethyl)acetamide]",900 nM
3,[2H]C([2H])(c1cc(Cl)ccc1NCc1cocn1)N1CCN(C(=O)CNC(=O)[C@@H]2CC23CCC(F)(F)CC3)CC1 [Compound 1583],150 nM
4,"COC(=O)c1ccc(COc2ccccc2CN2CCN(C(=O)CNC(=O)NC3CCC(F)(F)CC3)CC2)cc1 [Compound 1320, Methyl 4-((2-((4-(((4,4-difluorocyclohexyl)carbamoyl)glycyl)piperazin-1-yl)methyl)phenoxy)methyl)benzoate]",> 2000 nM
5,CC1(CC(=O)NCC(=O)N2CCN(Cc3ccccc3OCc3ccc(Br)cc3)CC2)CCCCC1 [Compound 1142],520 nM
6,[2H]C([2H])(c1cc(Cl)ccc1NCc1ccc(S(C)(=O)=O)cn1)N1CCN(C(=O)CNC(=O)[C@@H]2CC23CCC(F)(F)CC3)CC1 [Compound 1586],45 nM
7,"O=C(CC12CC3CC(CC(C3)C1)C2)NCC(=O)N1CCN(Cc2cc(Cl)ccc2OC(F)(F)F)CC1 [Compound 1309, 2-((1R,3R,5S)-Adamantan-1-yl)-N-(2-(4-(5-chloro-2-(trifluoromethoxy)benzyl)piperazin-1-yl)-2-oxoethyl)acetamide]",420 nM
8,"O=C(CC1CCC(F)(F)CC1)NCC(=O)N1CCN(Cc2cc(F)cc3cccnc23)CC1 [Compound 1429, 2-(4,4-Difluorocyclohexyl)-N-(2-(4-((6-fluoroquinolin-8-yl)methyl)piperazin-1-yl)-2-oxoethyl)acetamide]",950 nM
9,COC(=O)c1ccc(CCc2ccccc2CN2CCN(C(=O)CNC(=O)CC34CC5CC(CC(C5)C3)C4)CC2)cc1 [Compound 1123],20 nM
10,"O=C(CC1CCC(F)(F)CC1)NCC(=O)N1CCN(Cc2cc(Cl)ccc2NC(=O)C2CC2)CC1 [Compound 1378, N-(4-Chloro-2-((4-((2-(4,4-difluorocyclohexyl)acetyl)glycyl)piperazin-1-yl)methyl)phenyl)cyclopropanecarboxamide]",> 2000 nM
11,"O=C(NCC(=O)N1CCN(Cc2cc(Br)ccc2Cl)CC1)C1C2CC(F)(F)CC21 (centres unmarked) [Compound 1356, N-(2-(4-(5-bromo-2-chlorobenzyl)piperazin-1-yl)-2-oxoethyl)-3,3-difluorobicyclo[3.1.0]hexane-6-carboxamide]",> 2000 nM
12,"CS(=O)(=O)c1ccc(COc2ccc(Cl)cc2CN2CCN(C(=O)CNC(=O)C3CC34CCC(F)(F)CC4)CC2)nc1 (centres unmarked) [Compound 1621, 6,6-Difluoro-spiro[2.5]octane-1-carboxylic acid (2-{4-[5-chloro-2-(5-methanesulfonyl-pyridin-2-ylmethoxy)-benzyl]-piperazin-1-yl}-2-oxo-ethyl)-amide]",30 nM
13,"O=C(Nc1ncc(Cl)cc1CN1CCN(C(=O)CNC(=O)C2CC23CCC(F)(F)CC3)CC1)NC1CC1 (centres unmarked) [Compound 1393, N-(2-(4-((5-Chloro-2-(3-cyclopropylureido)pyridin-3-yl)methyl)piperazin-1-yl)-2-oxoethyl)-6,6-difluorospiro[2.5]octane-1-carboxamide]",> 5000 nM
14,"Cc1ccc(Cl)cc1CN1CCN(C(=O)CNC(=O)C2CC23CCC(F)(F)CC3)CC1 (centres unmarked) [Compound 1431, N-(2-(4-(5-Chloro-2-methylbenzyl)piperazin-1-yl)-2-oxoethyl)-6,6-difluorospiro[2.5]octane-1-carboxamide]",550 nM
15,"O=C(CC12CC3CC(CC(C3)C1)C2)NCC(=O)N1CCN(Cc2cc(F)c(F)cc2Cl)CC1 [Compound 1353, 2-((1R,3R,5S)-Adamantan-1-yl)-N-(2-(4-(2-chloro-4,5-difluorobenzyl)piperazin-1-yl)-2-oxoethyl)acetamide]",1500 nM
16,"O=C(CC1CCC(F)(F)CC1)NCC(=O)N1CCN(Cc2cc(Br)ccc2Cl)CC1 [Compound 1374, N-(2-(4-(5-Bromo-2-chlorobenzyl)piperazin-1-yl)-2-oxoethyl)-2-(4,4-difluorocyclohexyl)acetamide]",> 2000 nM
17,O=C(CC12CC3CC(CC(O)(C3)C1)C2)NCC(=O)N1CCN(Cc2ccccc2OCc2ccc(Br)cc2)CC1 [Compound 1244],500 nM
18,COC(=O)c1ccc(COc2ccc(C)cc2CN2CCN(C(=O)CNC(=O)CC34CC5CC(CC(C5)C3)C4)CC2)cc1 [Compound 1114],< 2000 nM
19,"COC(=O)c1ccc(COc2ccccc2CN2CCN(C(=O)CNC(=O)C3(C)CCC(F)(F)CC3)CC2)cc1 [Compound 1328, Methyl 4-((2-((4-((4,4-difluoro-1-methylcyclohexane-1-carbonyl)glycyl)piperazin-1-yl)methyl)phenoxy)methyl)benzoate]",250 nM
20,COC(=O)c1ccc(COc2ccccc2CN2CCN(C(=O)CNC(=O)C3CCC(F)(F)CC3)CC2)cc1 [Compound 1298],1500 nM
21,"O=C(CC1CCC(F)(F)CC1)NCC(=O)N1CCN(Cc2cc(Cl)cc3cccnc23)CC1 [Compound 1422, N-(2-(4-((6-Chloroquinolin-8-yl)methyl)piperazin-1-yl)-2-oxoethyl)-2-(4,4-difluorocyclohexyl)acetamide]",360 nM
22,"O=C(CC1CCC(F)(F)CC1)NCC(=O)N1CCN(Cc2cc(Cl)cc(Cl)c2O)CC1 [Compound 1401, N-(2-(4-(3,5-Dichloro-2-hydroxybenzyl)piperazin-1-yl)-2-oxoethyl)-2-(4,4-difluorocyclohexyl)acetamide]",3700 nM
23,"COC(=O)c1ccc(COc2ccc(F)cc2CN2CCN(C(=O)CNC(=O)CC3(C)CCCCC3)CC2)cc1 [Compound 1336, Methyl 4-((4-fluoro-2-((4-((2-(1-methylcyclohexyl)acetyl)glycyl)piperazin-1-yl)methyl)phenoxy)methyl)benzoate]",51 nM
24,"COc1ccc(Cl)cc1CN1CCN(C(=O)CNC(=O)CC2CCC(F)(F)CC2)CC1 [Compound 1384, N-(2-(4-(5-Chloro-2-methoxybenzyl)piperazin-1-yl)-2-oxoethyl)-2-(4,4-difluorocyclohexyl)acetamide]",330 nM
25,"O=C(CC1CCC(F)(F)CC1)NCC(=O)N1CCN(Cc2cccc(Cl)c2Cl)CC1 [Compound 1382, N-(2-(4-(2,3-Dichlorobenzyl)piperazin-1-yl)-2-oxoethyl)-2-(4,4-difluorocyclohexyl)acetamide]",> 2000 nM
26,"O=C(CC12CC3CC(CC(C3)C1)C2)NCC(=O)N1CCN(Cc2c(Cl)cccc2Cl)CC1 [Compound 1363, 2-((1R,3R,5S)-Adamantan-1-yl)-N-(2-(4-(2,6-dichlorobenzyl)piperazin-1-yl)-2-oxoethyl)acetamide]",1000 nM
27,[2H]C([2H])(c1cc(Cl)ccc1NCC)N1CCN(C(=O)CNC(=O)C2CC23CCC(F)(F)CC3)CC1 (centres unmarked) [Compound 1534],200 nM
28,[2H]C([2H])(c1cc(Cl)ccc1NCc1ncccn1)N1CCN(C(=O)CNC(=O)[C@@H]2CC23CCC(F)(F)CC3)CC1 [Compound 1580],700 nM
29,O=C(CC1CCC(F)(F)CC1)NCC(=O)N1CCN(Cc2cc(Cl)ccc2OC(F)(F)F)CC1 [Compound 1372],> 2000 nM

# Source: patent publication US11629139B2 (priority 2017, dated 2023)
